Laboratory results as given in publication PMC7180948, “New Insights into 4-Anilinoquinazolines as Inhibitors of Cardiac Troponin I–Interacting Kinase (TNNi3K)” (Molecules, 2020).

What was measured:
Assay in all cases: biochemical
Design in all cases: KINOMEscan competition binding panel (Eurofins DiscoverX), single concentration, % inhibition
Conditions in all cases: read-out: 7 at 1 µM % inhibition
[1] = biological target: T1, ABL1(Y253F)-phosphorylated (Homo sapiens, UniProt P00519, Y253F)
T1 construct: phosphorylated
Outline: (§1)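 Values come from single-concentration (1 µM) profiling in the Eurofins DiscoverX KINOMEscan competition-binding platform, which covers over 400 kinases.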

[2] = biological target: T2, ABL1-nonphosphorylated (Homo sapiens, UniProt P00519)
T2 construct: nonphosphorylated
Outline: as §1

[3] = biological target: CAMK1 (Homo sapiens, UniProt Q14012)
Outline: as §1

[4] = biological target: CAMK1D (Homo sapiens, UniProt Q8IU85)
Outline: as §1

[5] = biological target: CAMK2D (Homo sapiens, UniProt Q13557)
Outline: as §1

[6] = biological target: CDK7 (Homo sapiens, UniProt P50613)
Chain of CDK7 (P50613 whole entry): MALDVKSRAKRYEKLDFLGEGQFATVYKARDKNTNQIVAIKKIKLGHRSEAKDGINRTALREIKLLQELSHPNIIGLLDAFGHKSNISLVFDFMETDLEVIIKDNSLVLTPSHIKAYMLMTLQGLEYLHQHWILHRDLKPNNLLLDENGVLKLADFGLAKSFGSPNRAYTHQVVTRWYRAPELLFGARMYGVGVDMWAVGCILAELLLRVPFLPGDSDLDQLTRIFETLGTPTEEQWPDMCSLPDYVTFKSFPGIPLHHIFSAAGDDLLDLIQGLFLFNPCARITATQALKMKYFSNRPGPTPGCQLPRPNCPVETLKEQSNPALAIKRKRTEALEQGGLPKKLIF
Outline: as §1

[7] = biological target: FGFR2 (Homo sapiens, UniProt P21802)
Chain of FGFR2 (P21802 whole entry): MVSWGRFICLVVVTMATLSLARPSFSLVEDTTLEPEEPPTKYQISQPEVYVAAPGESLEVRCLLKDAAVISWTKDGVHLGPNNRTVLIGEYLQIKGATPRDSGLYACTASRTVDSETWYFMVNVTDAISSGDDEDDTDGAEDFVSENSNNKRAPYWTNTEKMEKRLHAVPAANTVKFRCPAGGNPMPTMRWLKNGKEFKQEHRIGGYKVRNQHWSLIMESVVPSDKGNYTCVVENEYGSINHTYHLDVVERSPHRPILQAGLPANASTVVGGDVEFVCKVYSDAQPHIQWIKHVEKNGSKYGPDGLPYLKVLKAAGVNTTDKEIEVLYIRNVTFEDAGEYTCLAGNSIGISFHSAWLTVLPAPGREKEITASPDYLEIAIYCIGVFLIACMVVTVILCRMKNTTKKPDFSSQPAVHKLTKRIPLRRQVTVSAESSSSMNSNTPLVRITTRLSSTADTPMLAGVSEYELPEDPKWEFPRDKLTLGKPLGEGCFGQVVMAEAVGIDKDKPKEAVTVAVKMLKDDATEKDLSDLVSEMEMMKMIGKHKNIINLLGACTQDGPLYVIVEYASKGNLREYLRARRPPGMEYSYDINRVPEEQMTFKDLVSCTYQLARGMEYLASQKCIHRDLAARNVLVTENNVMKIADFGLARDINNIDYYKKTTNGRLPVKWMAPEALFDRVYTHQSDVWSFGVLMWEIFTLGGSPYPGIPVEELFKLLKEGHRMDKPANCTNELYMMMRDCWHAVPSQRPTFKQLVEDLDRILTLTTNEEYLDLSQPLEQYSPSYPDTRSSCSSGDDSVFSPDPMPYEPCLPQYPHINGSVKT
Outline: as §1

[8] = biological target: FLT3(ITD,D835V) (Homo sapiens, UniProt P36888, D835V/ITD)
Outline: as §1

[9] = biological target: FLT3(K663Q) (Homo sapiens, UniProt P36888, K663Q)
Outline: as §1

[10] = biological target: GSK3A (Homo sapiens, UniProt P49840)
Outline: as §1

[11] = biological target: LATS1 (Homo sapiens, UniProt O95835)
Outline: as §1

[12] = biological target: MAK (Homo sapiens, UniProt P20794)
Outline: as §1

[13] = biological target: T3, MEK2 (Homo sapiens, UniProt P36507)
T3 construct: gene MAP2K2
Outline: as §1

[14] = biological target: MYLK2 (Homo sapiens, UniProt Q9H1R3)
Outline: as §1

[15] = biological target: T4, PKAC-alpha (Homo sapiens, UniProt P17612)
T4 construct: gene PRKACA
Outline: as §1

[16] = biological target: RIPK2 (Homo sapiens, UniProt O43353)
Outline: as §1

[17] = biological target: T5, RSK1(Kin.Dom.2-C-terminal) (Homo sapiens, UniProt Q15418)
T5 construct: gene RPS6KA1; Kin.Dom.2-C-terminal
T5 sequence (Q15418 whole entry): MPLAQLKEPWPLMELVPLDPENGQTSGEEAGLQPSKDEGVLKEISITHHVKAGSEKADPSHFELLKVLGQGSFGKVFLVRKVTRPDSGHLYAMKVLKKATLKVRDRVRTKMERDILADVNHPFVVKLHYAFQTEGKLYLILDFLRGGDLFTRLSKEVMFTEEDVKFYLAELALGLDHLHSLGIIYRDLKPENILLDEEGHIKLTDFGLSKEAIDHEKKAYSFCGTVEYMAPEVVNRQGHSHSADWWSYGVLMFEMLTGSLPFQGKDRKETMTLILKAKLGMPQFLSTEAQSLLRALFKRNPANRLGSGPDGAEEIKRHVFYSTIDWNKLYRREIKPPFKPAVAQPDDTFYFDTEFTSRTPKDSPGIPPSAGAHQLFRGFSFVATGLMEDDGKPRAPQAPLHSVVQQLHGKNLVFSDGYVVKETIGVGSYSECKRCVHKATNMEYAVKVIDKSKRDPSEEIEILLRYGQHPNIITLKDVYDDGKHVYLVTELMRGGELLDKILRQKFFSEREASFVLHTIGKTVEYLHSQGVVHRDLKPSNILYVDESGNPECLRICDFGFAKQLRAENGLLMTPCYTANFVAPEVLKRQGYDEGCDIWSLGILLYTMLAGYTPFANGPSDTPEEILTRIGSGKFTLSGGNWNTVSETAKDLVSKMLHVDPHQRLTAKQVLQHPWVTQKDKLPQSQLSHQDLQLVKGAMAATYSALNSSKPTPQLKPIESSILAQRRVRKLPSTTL
Outline: as §1

[18] = biological target: T6, SIK (Homo sapiens, UniProt P57059)
T6 construct: gene SIK1
T6 sequence (P57059 whole entry): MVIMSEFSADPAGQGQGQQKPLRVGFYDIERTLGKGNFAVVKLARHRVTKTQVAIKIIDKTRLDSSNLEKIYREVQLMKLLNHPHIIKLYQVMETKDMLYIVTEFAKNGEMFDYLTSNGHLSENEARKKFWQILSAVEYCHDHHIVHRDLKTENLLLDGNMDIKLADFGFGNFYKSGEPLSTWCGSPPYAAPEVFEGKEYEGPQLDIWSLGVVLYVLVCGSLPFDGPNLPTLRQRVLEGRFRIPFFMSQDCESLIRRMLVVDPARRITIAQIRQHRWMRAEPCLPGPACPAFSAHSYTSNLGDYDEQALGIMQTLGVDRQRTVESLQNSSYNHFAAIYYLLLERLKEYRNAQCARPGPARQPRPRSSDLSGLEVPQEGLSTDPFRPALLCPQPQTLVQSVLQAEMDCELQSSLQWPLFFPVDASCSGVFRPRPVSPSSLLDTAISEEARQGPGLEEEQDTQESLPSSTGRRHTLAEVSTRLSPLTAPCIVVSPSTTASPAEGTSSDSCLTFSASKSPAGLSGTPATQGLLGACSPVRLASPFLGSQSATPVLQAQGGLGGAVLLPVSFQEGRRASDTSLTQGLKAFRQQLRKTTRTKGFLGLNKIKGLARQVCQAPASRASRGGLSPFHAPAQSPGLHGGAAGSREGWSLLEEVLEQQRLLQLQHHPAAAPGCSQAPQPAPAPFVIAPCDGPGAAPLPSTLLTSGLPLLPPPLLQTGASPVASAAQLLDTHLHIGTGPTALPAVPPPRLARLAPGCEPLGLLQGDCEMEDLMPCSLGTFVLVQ
Outline: as §1

[19] = biological target: SRMS (Homo sapiens, UniProt Q9H3Y6)
Chain of SRMS (Q9H3Y6 whole entry): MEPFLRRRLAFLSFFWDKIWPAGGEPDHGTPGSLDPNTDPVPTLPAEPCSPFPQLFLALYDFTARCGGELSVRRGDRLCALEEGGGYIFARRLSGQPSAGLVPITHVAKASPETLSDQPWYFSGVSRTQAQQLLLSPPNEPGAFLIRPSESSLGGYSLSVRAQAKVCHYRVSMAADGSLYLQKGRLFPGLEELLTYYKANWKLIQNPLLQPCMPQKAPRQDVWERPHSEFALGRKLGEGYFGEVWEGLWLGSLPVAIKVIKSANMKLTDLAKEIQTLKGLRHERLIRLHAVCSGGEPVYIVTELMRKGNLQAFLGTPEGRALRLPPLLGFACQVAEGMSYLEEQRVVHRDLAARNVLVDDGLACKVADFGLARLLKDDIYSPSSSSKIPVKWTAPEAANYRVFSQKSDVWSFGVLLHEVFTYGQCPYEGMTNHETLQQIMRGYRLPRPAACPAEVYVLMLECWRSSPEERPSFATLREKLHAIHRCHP
Outline: as §1

[20] = biological target: TAOK1 (Homo sapiens, UniProt Q7L7X3)
Chain of TAOK1 (Q7L7X3 whole entry): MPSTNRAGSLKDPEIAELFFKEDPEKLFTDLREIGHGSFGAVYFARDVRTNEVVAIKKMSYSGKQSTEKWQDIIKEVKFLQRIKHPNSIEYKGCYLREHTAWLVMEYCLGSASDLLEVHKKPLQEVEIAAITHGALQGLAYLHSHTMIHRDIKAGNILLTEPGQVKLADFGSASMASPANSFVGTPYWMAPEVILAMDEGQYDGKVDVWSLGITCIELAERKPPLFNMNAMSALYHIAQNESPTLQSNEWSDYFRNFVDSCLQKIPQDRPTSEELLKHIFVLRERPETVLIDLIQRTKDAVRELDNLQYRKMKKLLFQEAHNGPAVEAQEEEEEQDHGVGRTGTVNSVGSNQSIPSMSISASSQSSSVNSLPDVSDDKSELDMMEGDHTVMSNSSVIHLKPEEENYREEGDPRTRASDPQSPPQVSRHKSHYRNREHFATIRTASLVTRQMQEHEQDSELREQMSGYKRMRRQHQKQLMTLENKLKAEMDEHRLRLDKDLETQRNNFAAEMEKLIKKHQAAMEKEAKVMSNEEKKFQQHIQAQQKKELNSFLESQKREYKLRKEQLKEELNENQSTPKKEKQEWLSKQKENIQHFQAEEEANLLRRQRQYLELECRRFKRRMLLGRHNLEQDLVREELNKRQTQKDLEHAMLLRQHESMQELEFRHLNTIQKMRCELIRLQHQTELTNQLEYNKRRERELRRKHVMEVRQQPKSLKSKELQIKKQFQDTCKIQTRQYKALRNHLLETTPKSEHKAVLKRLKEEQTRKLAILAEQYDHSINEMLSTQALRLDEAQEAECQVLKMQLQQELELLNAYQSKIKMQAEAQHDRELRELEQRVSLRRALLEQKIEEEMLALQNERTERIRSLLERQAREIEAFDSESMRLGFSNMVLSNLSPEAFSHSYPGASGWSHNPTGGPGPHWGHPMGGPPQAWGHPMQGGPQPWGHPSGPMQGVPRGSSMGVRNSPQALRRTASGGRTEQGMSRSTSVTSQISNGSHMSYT
Outline: as §1

[21] = biological target: TTK (Homo sapiens, UniProt P33981)
Chain of TTK (P33981 whole entry): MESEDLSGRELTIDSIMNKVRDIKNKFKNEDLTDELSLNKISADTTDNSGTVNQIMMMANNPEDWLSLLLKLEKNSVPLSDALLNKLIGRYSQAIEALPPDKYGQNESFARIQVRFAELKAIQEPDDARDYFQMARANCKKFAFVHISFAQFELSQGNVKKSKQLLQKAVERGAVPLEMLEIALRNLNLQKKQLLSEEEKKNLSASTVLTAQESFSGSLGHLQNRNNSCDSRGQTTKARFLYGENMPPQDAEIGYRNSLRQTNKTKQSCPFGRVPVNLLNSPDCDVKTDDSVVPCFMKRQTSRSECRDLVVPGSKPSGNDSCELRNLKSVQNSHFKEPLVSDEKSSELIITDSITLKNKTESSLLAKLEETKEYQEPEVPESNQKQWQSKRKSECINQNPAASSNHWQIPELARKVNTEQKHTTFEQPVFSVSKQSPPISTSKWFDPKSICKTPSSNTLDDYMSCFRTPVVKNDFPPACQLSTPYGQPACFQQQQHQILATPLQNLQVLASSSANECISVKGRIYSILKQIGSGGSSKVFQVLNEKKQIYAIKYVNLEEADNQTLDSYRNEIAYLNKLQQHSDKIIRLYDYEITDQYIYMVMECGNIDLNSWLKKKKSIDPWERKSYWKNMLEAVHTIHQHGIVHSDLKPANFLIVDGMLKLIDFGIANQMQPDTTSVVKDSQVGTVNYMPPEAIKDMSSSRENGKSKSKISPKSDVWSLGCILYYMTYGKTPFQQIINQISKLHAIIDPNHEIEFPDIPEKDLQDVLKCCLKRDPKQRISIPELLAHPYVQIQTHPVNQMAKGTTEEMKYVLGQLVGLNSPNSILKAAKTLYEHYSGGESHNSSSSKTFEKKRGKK
Outline: as §1

[22] = biological target: ULK1 (Homo sapiens, UniProt O75385)
Outline: as §1

[23] = biological target: T7, YANK1 (Homo sapiens, UniProt Q8WU08)
T7 construct: gene STK32A
Outline: as §1

[24] = biological target: T8, p38-delta (Homo sapiens, UniProt O15264)
T8 construct: gene MAPK13
Outline: as §1

## CNS(=O)(=O)c1ccc(N(C)C)c(Nc2ncnc3cc(OC)c(OC)cc23)c1 [compound 7, 3-((6,7-dimethoxyquinazolin-4-yl)amino)-4-(dimethylamino)-N-methylbenzenesulfonamide]
[1]
  inhibition at 1 µM: 38%
[2]
  inhibition at 1 µM: 21%
[3]
  inhibition at 1 µM: 0%
[4]
  inhibition at 1 µM: 0%
[5]
  inhibition at 1 µM: 0%
[6]
  inhibition at 1 µM: 6%
[7]
  inhibition at 1 µM: 0%
[8]
  inhibition at 1 µM: 34%
[9]
  inhibition at 1 µM: 7%
[10]
  inhibition at 1 µM: 0%
[11]
  inhibition at 1 µM: 0%
[12]
  inhibition at 1 µM: 0%
[13]
  inhibition at 1 µM: 25%
[14]
  inhibition at 1 µM: 0%
[15]
  inhibition at 1 µM: 6%
[16]
  inhibition at 1 µM: 28%
[17]
  inhibition at 1 µM: 0%
[18]
  inhibition at 1 µM: 17%
[19]
  inhibition at 1 µM: 41%
[20]
  inhibition at 1 µM: 25%
[21]
  inhibition at 1 µM: 7%
[22]
  inhibition at 1 µM: 18%
[23]
  inhibition at 1 µM: 17%
[24]
  inhibition at 1 µM: 0%
